Like-named read-outs stand apart in the source and are kept apart here.
How the values were obtained:
M. incognita J2 larvae = assay: Meloidogyne incognita in vitro larval mobility assay; type: in vivo; settings: 45 μM, 4 days; for Replicate 1 z-score / Replicate 2 z-score: z-score vs untreated DMSO wells; for pest or weed control at 45 µM: Meloidogyne incognita, 96 h
Outline: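 Infective J2 juveniles of M. incognita Race 1, about 35 per well, were exposed to compound at 45 μM in deionized water with 0.5% DMSO for 4 days at 25° C without shaking. Immobile worms were counted as % of total, averaged over two replicates. A z-score against DMSO control wells was also computed, with z > 1.645 in both replicates marking a hit.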

M. chitwoodi J2 larvae = assay: Meloidogyne chitwoodi in vitro larval mobility assay; type: in vivo; settings: Meloidogyne chitwoodi, 48 h, 2 days, average of three replicates, read-out: % Immobile
Experimental: M. chitwoodi race 1 (the strain commonly found in the pacific northwest of the United States) was used for all experiments, and was maintained on tomato plants (Solanum lycopersicum ‘Rutgers’) as previously described^47. The microwell dose-response experiments were carried out similarly to previously described protocols^44,46. […] The chemicals were tested at 45 μM, and the final concentration of DMSO in each well was 0.5% (v/v). The wells were covered with a plastic adhesive strip, and the lids of the plates were sealed with parafilm. The plates were incubated at 25° C. for 2 days. The percent of worms that were immobile (% immobile) was quantified by counting the number of immobile worms after 2 days of incubation, dividing the number of immobile worms by the total number of worms in the well, and then multiplying by 100. […] The average % immobile value was calculated across the three replicates.

M. hapla eggs = assay: Meloidogyne hapla in vitro egg hatch assay; type: in vivo; settings: 45 μM; for Number of Hatched Eggs: 8 days at room temperature, about 90 eggs per well, tested once; for Number of Hatched Eggs z-score: 8 days, z-score vs 8 untreated DMSO wells
Outline: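 About 90 eggs per well, freed from carrot-root egg masses with 10% bleach for 4 min, were exposed in deionized water to 0.5 μL compound or DMSO. Hatched eggs were counted after 8 days at room temperature without shaking in humid conditions. Each treatment was tested once, with z-scores calculated from 8 untreated DMSO control wells.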

C. elegans = C. elegans dose-response (viability, minimum lethal concentration); type: in vivo, Caenorhabditis elegans; settings: Caenorhabditis elegans, 72 h, L1 worms, 3 days at 20° C.
Experimental: Forty microliters of an HB101 E. coli bacterial suspension in liquid NGM (nematode growth media—see ref. 42 for the recipe) was added to each well of a 96-well flat-bottom culture plate, after which approximately 25 synchronized L1 worms, in 10 μl of M9 buffer (see ref. 43 for the recipe), were added to each well. The synchronized L1 worms were obtained from an embryo preparation performed the previous day (see ref. 43 for the protocol). For the L1 assays, 0.5 μl of test compound solution (or DMSO alone) was immediately added to the wells using a multichannel pipette; the final DMSO concentration is 1% (v/v). The worms were incubated for 3 days at 20° C. and the number of viable animals was counted.
At least three biological replicates were performed for each dose-response assay. For each biological replicate, two technical replicates were performed and the numbers of viable animals for each technical replicate were combined (i.e. ˜ 50 worms assayed per concentration). The number of viable worms at each concentration was divided by the corresponding DMSO control value to give the “relative viability” for each concentration. The “relative viability” values were then averaged across the biological replicates. Minimum lethal concentration was defined as the lowest concentration at which at least 20% of worms die.

M. chitwoodi = assay: Meloidogyne chitwoodi infectivity assay (soil, tomato roots); type: in vivo; settings: 45 μM in soil, 8 weeks, egg counts relative to DMSO control
Experimental: M. chitwoodi race 1 (the strain commonly found in the pacific northwest of the United States) was used for all experiments, and was maintained on tomato plants (Solanum lycopersicum ‘Rutgers’) as previously described^47. The M. chitwoodi infectivity assays were performed identically to the M. incognita infectivity assays (see above), with the exception that egg counts were not normalized to the mass of the roots. Four technical replicates were performed in a single batch.

M. incognita = assay: Meloidogyne incognita infectivity assay (soil, tomato roots); type: in vivo; settings: Meloidogyne incognita, 1344 h, 45 μM in soil, 8 weeks, eggs per mg root relative to DMSO control, read-out: % effectiveness at inhibiting reproduction of M. incognita
Description: An M. incognita population originally collected from grape (Vitis vinifera) in Parlier, California, was used for all experiments, and they were maintained on tomato plants (Solanum lycopersicum ‘Rutgers’) as previously described^47. Infective J2 juveniles were collected as described in ref. 47.

tomato plants = assay: Root mass of tomato plants in the soil infectivity assay; settings: 45 μM in soil, 8 weeks
Experimental: For the infectivity assays, 90 grams of soil (1:1 sand:loam mix) was added to each cell of several 6-cell plastic garden packs. The soil was drenched with 18 mL of deionized water containing dissolved test compound or DMSO alone. 2,500 infective J2 juveniles were then added to the soil in 2 mL of deionized water, for a total water volume of 20 mL. […] The DMSO concentration varied from 0.1% to 0.8% (v/v) depending on the stock concentration of the test compound. The highest DMSO concentration was used as the DMSO control. The J2s were incubated in the soil and chemical for 24 hours, after which two- to three-week old tomato seedlings were transplanted into the soil (one plant per cell). Two replicates were performed for each chemical treatment, and four replicates were done for the DMSO controls. The whole experiment was replicated twice, in two different batches on two different days, for a total of four replicates for each test compound treatment, and eight replicates for the DMSO controls. Inoculated plants were grown for 8 weeks in a greenhouse, as described^47, under long-day conditions (16-h photoperiod) with 26/18° C. day/night temperatures. After 8 weeks, the plants were destructively harvested. The tops were removed and discarded, and roots were gently washed with water to remove adhering soil. Eggs were extracted by placing rinsed roots in 0.6% sodium hypochlorite and agitating at 300 rpm for 3 min. Roots were then rinsed over nested 250—and 25.4-μm sieves, with eggs collected from the latter and suspended in water. Roots were dried in a 65° C. oven for at least 24 hours, after which dry roots were weighed. The number of eggs from each plant root was counted on a dissection microscope using a haemocytometer, and the number of eggs per milligram of root was calculated by dividing the total egg number by the mass of the dried root material. An average was taken across the replicates performed on the same day, and then normalized to the DMSO control average. […] An average percent effectiveness value was then calculated across the two different batches carried out on different days.

[1] = average of the two replicates, read-out: Average % Immobile
[2] = replicate 1, read-out: Replicate 1 % Immobile
[3] = replicate 2, read-out: Replicate 2 % Immobile
[4] = lowest concentration at which at least 20% of worms die, read-out: Minimum Lethal Concentration
[5] = same values in ppm, read-out: Minimum Lethal Concentration (ppm)

O=C(NCCc1ncc(C(F)(F)F)cc1Cl)c1ccccc1C(F)(F)F [Fluopyram, fluopyram, reference compound]
Replicate 1 z-score (M. incognita J2 larvae; replicate 1): [14.82] | Replicate 2 z-score (M. incognita J2 larvae; replicate 2): [21.99] | pest or weed control at 45 µM (M. incognita J2 larvae; [1]): 100% | pest or weed control at 45 µM (M. incognita J2 larvae; [2]): 100% | pest or weed control at 45 µM (M. incognita J2 larvae; [3]): 100% | pest or weed control at 45 µM (M. chitwoodi J2 larvae): 100% | Number of Hatched Eggs (M. hapla eggs): 0 | Number of Hatched Eggs z-score (M. hapla eggs): [4.63]

Cc1c(-c2ccccc2)nc2sccn12 [I-1]
minimal effective concentration (C. elegans; [4]): > 100 µM | minimal effective concentration (C. elegans; [5]): > 21.4 µg/mL | pest or weed control at 45 µM (M. chitwoodi J2 larvae): 48.2%

CCc1ccc(-c2cn3ccsc3n2)cc1 [I-7]
minimal effective concentration (C. elegans; [4]): 50 µM | minimal effective concentration (C. elegans; [5]): 11.4 µg/mL | Replicate 1 z-score (M. incognita J2 larvae; replicate 1): [10.58] | Replicate 2 z-score (M. incognita J2 larvae; replicate 2): [3.55] | pest or weed control at 45 µM (M. incognita J2 larvae; [1]): 51.9% | pest or weed control at 45 µM (M. incognita J2 larvae; [2]): 74.5% | pest or weed control at 45 µM (M. incognita J2 larvae; [3]): 29.4% | pest or weed control at 45 µM (M. chitwoodi J2 larvae): > 75% | Number of Hatched Eggs (M. hapla eggs): 1 | Number of Hatched Eggs z-score (M. hapla eggs): [4.30] | % effectiveness at inhibiting reproduction of M. chitwoodi (M. chitwoodi): 59.3%

CCc1ccc(-c2cn3cc(C)sc3n2)cc1 [I-10]
minimal effective concentration (C. elegans; [4]): 6.25 µM | minimal effective concentration (C. elegans; [5]): 1.5 µg/mL | pest or weed control at 45 µM (M. incognita): 18.5% | % effectiveness at inhibiting reproduction of M. chitwoodi (M. chitwoodi): 63.7% | Normalized root mass (relative to DMSO control) (tomato plants): 1.30

Cc1c(-c2ccc(F)cc2)nc2sccn12 [I-13]
minimal effective concentration (C. elegans; [4]): > 100 µM | minimal effective concentration (C. elegans; [5]): > 23.2 µg/mL | Replicate 1 z-score (M. incognita J2 larvae; replicate 1): [2.58] | Replicate 2 z-score (M. incognita J2 larvae; replicate 2): [2.14] | pest or weed control at 45 µM (M. incognita J2 larvae; [1]): 28.4% | pest or weed control at 45 µM (M. incognita J2 larvae; [2]): 35.3% | pest or weed control at 45 µM (M. incognita J2 larvae; [3]): 21.6% | pest or weed control at 45 µM (M. chitwoodi J2 larvae): 32.4% | pest or weed control at 45 µM (M. incognita): 0% | Normalized root mass (relative to DMSO control) (tomato plants): 1.12

Source: US20240109914A1, “IMIDAZOTHIAZOLE COMPOUNDS AND ANALOGS THEREOF AND METHODS FOR TREATING NEMATODE INFECTIONS IN PLANTS” (The Governing Council of The University of Toronto, priority 2021, published 2024)
